In ChEMBL document CHEMBL5537156, “Discovery and Optimization of WDR5 Inhibitors via Cascade Deoxyribonucleic Acid-Encoded Library Selection Approach” (J Med Chem, 2024) one finds IC50 data, which are given here for 22 compounds.

Each structure is given as a SMILES string.

For assay [1], the target named is Histone-lysine N-methyltransferase 2A/WDR5 (Homo sapiens, UniProt P61964). Nature of the assay: Inhibition of MLL1/WDR5 (unknown origin) protein-protein interaction incubated for 60 mins by HTRF analysis. The format is protein assay. Background: Time-resolved FRET reads energy transfer from a long-lived donor to a nearby acceptor.
For assay [2], the system named is MV4-11. Nature of the assay: Antiproliferative activity against human MV4-11 cells harboring MLL-r assessed as cell growth inhibition incubated for 5 days by CCK-8 assay. It counts as functional, cell-based. A general note: Formazan colour is commonly taken as a measure of viable cells.
In assay [3] the test system is K562. Nature of the assay: Antiproliferative activity against human K562 cells assessed as cell growth inhibition incubated for 5 days by CCK-8 assay. It counts as functional, cell-based.

`CSc1ccccc1-c1cc(NCc2nc[nH]c2C)cc2c1CCN(Cc1ccc(Cl)cc1)C2=O`: the IC50 – broadly, the concentration that inhibits the measured activity by half – was 0.0405 µM in assay [1]; 3.4 µM in assay [2] (Homo sapiens, MV4-11, 120 h); 4.9 µM in assay [3] (Homo sapiens, K562, 120 h).
`Cc1[nH]cnc1CNc1cc(Br)cc(C(=O)N[C@H](Cc2ccc(Cl)cc2)C(=O)NC2CC2)c1` gave a concentration for half-maximal inhibition (IC50) in assay [1] of 0.0324 µM.
`CSc1cc(F)ccc1-c1cc(NCc2nc[nH]c2C)cc2c1CCN(CCc1ccc(Cl)cc1)C2=O`: the IC50 in assay [1] came out at 0.0395 µM; in assay [2] (Homo sapiens, MV4-11, 120 h), 3.5 µM; in assay [3] (Homo sapiens, K562, 120 h), 4 µM.
For `Cc1ccc(CO)cc1-c1cc(NCc2nc[nH]c2C)cc2c1CCN(Cc1ccc(Cl)cc1)C2=O` the same measures were 0.0155 µM, 5.7 µM and 7.1 µM.
`CNC(=O)[C@@H](Cc1ccc(Cl)cc1)NC(=O)c1cc(NCc2nc[nH]c2C)cc(-c2ccccc2C2CC2)c1`: the IC50 in assay [1] is 0.0188 µM.
In the case of `CSc1ccccc1-c1cc(NCc2nc[nH]c2C)cc2c1CCCN(CCc1ccc(Cl)cc1)C2=O`, the IC50 in assay [1] came out at 0.319 µM; in assay [2] (Homo sapiens, MV4-11, 120 h) it was 3.93 µM; in assay [3] (Homo sapiens, K562, 120 h) it was 3.03 µM.
`Cc1[nH]cnc1CNc1cc(Br)cc(C(=O)N[C@H](Cc2ccc(Cl)cc2)C(=O)O)c1` showed an IC50 in assay [1] of 0.05 µM.
Turning to `CNC(=O)[C@@H](Cc1ccc(Cl)cc1)NC(=O)c1cc(NCc2nc[nH]c2C)cc(-c2ccccc2SC)c1`, the IC50 stood at 0.0113 µM in assay [1]; 1.9 µM in assay [2] (Homo sapiens, MV4-11, 120 h); 1.1 µM in assay [3] (Homo sapiens, K562, 120 h).
As for `CNC(=O)[C@@H](Cc1ccc(Cl)cc1)NC(=O)c1cc(NCc2nc[nH]c2C)cc(-c2ccc(C(C)(F)F)cc2)c1`, the IC50 in assay [1] turned out to be 0.149 µM.
On to `COC(=O)[C@@H](Cc1ccc(Cl)cc1)NC(=O)c1cc(NCc2nc[nH]c2C)cc(-c2ccccc2SC)c1`, for which the IC50 in assay [2] (Homo sapiens, MV4-11, 120 h) is 3.9 µM; in assay [3] (Homo sapiens, K562, 120 h), 3 µM.
For `COC(=O)[C@@H](Cc1ccc(Cl)cc1)NC(=O)c1cc(NCc2nc[nH]c2C)cc(-c2cc(CO)ccc2C)c1`, in that order: 5.5 µM and 4.9 µM.
Turning to `Cc1ccc(CO)cc1-c1cc(NCc2nc[nH]c2C)cc2c1CCN(CCc1ccc(Cl)cc1)C2=O`, the IC50 in assay [1] came out at 0.0172 µM; in assay [2] (Homo sapiens, MV4-11, 120 h), 6.2 µM; in assay [3] (Homo sapiens, K562, 120 h), 3.4 µM.
For `CSc1ccccc1-c1cc(NCc2nc[nH]c2C)cc2c1CCN(CCc1ccc(Cl)cc1)C2=O`, in that order: 0.0416 µM, 4.8 µM and 4.7 µM.
For the compound `CNC(=O)[C@@H](Cc1ccc(Cl)cc1)NC(=O)c1cc(Br)cc(NCc2nc[nH]c2C)c1`, in assay [1], half-maximal inhibition (IC50) was put at 0.0252 µM.
In assay [1], `Cc1[nH]cnc1CNc1cc(C(=O)N[C@H](Cc2ccc(Cl)cc2)C(=O)O)ccc1F` displayed an IC50 of 0.0846 µM.
Turning to `CNC(=O)[C@@H](Cc1ccc(Cl)cc1)NC(=O)c1cc(NCc2nc[nH]c2C)cc(-c2cc(CO)ccc2C)c1`, the half-maximal inhibitory concentration (IC50) in assay [1] was found to be 0.0086 µM; in assay [2] (Homo sapiens, MV4-11, 120 h), 5 µM; in assay [3] (Homo sapiens, K562, 120 h) it was 12.2 µM.
For the compound `Cc1[nH]cnc1CNc1cc(C(=O)N[C@H](Cc2ccc([N+](=O)[O-])cc2)C(=O)O)ccc1F`, in assay [1], the IC50 was determined as 0.239 µM.
`Cc1[nH]cnc1CNc1cc(Br)cc(C(=O)NCCc2ccc(Cl)cc2)c1`: the IC50 in assay [1] was 0.221 µM.
For the compound `Cc1[nH]cnc1CNc1cc2c(c(-c3ccc(Cl)cc3C(F)(F)F)c1)CCN(CCc1ccc(Cl)cc1)C2=O`, the IC50 amounted to 0.0758 µM in assay [1]; 4.8 µM in assay [2] (Homo sapiens, MV4-11, 120 h); 5.2 µM in assay [3] (Homo sapiens, K562, 120 h).
Turning to `CNC(=O)[C@@H](Cc1ccc(Cl)cc1)NC(=O)c1cc(NCc2nc[nH]c2C)cc(-c2ccc(Cl)cc2C(F)(F)F)c1`, the IC50 in assay [1] is 0.0098 µM; in assay [2] (Homo sapiens, MV4-11, 120 h), 6.2 µM; in assay [2] (mv4-11), 4.13 µM; in assay [3] (Homo sapiens, K562, 120 h), 3.43 µM; in assay [3] (k562) it was 4.9 µM.
`COc1cc(CN2CCc3c(cc(Cn4ccn(C)c4=N)cc3-c3ccc(F)cc3C)C2=O)cc(OC)c1`: the IC50 stood at 0.0068 µM in assay [1]; 0.17 µM in assay [2] (Homo sapiens, MV4-11, 120 h); 3.6 µM in assay [3] (Homo sapiens, K562, 120 h).
Regarding `CSc1cc(F)ccc1-c1cc(NCc2nc[nH]c2C)cc2c1CCN(Cc1ccc(Cl)cc1)C2=O`, the IC50 in assay [1] came to 0.0269 µM; in assay [2] (Homo sapiens, MV4-11, 120 h), 2.3 µM; in assay [3] (Homo sapiens, K562, 120 h), 3.5 µM.
